According to US20140206681A1, “BTK INHIBITORS” (priority 2013, published 2014):

What was measured:
[1] = target: T1, BTK enzyme (recombinant full-length BTK, hBTK) (Homo sapiens, UniProt Q06187); test: BTK enzyme activity assay, LANCE TR-FRET; assay type: biochemical; details: 50 pM hBTK, 2 μM biotin-A5-peptide, 25 μM ATP; 60 min compound & enzyme incubation; read-out: IC50 BTK activity value
T1 construct: recombinant protein from baculovirus-transfected Sf9 cells: full-length BTK, 6HIS-tag cleaved; 6HIS (cleaved yes); made in house; host or cells: baculovirus-transfected Sf9 cells

[2] = test system: HeLa cells; test: [3H]Adenosine uptake functional cellular assay; assay type: cell-based; details: Homo sapiens, HeLa, accumulation of [3H]adenosine into HeLa cells; compound range 10 μM to […]; read-out: Adenosine uptake inhibition IC50
Experimental: Compounds are also screened in an adenosine uptake functional cellular assay using the protocol described below. The adenosine uptake inhibition assay may be used to identify compounds with the potential for a negative cardiovascular side effect.
Adenosine uptake activity was determined by monitoring the accumulation of tritiated adenosine into HeLa cells (ATCC catalog # CCL-2) using a PMT-based radiometric detection instrument. […] These cells were incubated overnight at 37° C. in a humidified atmosphere with 5% (v/v) CO2. After this time the growth medium was removed and replaced with 40 μL assay medium comprising: Hanks balanced salts solution (HBSS; Thermo Fisher Catalog # SH30268.01)+5% (v/v) FBS. […] 40 μL of compound in the assay medium was dispensed into individual wells of the Cytostar-T plates and the plates were incubated for 30 minutes under ambient laboratory conditions. Following this incubation, 20 μL of 500 nM [^3H]adenosine (American Radiolabeled Chemicals Inc. Catalog # ART0287) was added in the assay medium and incubated for a further 60 minutes under ambient laboratory conditions. The amount of radiolabel accumulation was then determined using a Perkin Elmer Topcount NXT microplate reader. In brief, HeLa cells adhere to the bottom of the Cytostar-T plate, uptake of [^3H]adenosine into these cells brings the radiolabel into sufficient proximity to excite the scintillant in the base of the plates. These events are captured by single PMT, time-resolved coincidence counting. IC50 values were determined by 4 parameter robust fit of counts per second values vs. (Log10) compound concentrations.

T1 sequence (Q06187 whole entry): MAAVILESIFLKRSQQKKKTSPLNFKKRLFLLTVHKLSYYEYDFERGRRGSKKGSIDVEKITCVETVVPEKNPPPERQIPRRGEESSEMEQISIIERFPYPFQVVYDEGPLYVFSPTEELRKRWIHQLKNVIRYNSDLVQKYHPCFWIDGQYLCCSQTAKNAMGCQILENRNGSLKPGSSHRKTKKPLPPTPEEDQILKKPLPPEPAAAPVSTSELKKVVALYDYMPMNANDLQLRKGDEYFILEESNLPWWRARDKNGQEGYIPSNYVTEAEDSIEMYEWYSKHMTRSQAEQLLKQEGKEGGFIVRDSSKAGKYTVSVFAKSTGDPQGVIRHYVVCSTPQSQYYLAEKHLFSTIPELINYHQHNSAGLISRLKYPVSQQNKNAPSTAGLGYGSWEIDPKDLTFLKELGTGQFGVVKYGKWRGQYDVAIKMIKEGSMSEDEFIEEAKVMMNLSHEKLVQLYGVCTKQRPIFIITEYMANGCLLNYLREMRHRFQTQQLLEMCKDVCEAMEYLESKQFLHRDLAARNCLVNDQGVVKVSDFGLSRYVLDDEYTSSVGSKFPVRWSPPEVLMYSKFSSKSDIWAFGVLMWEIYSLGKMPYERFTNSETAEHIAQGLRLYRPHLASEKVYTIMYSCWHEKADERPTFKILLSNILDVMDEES

Compound	IC50 [1]	IC50 [2]
Nc1nccn2c([C@@H]3CC[C@H]4CCCC(=O)N4C3)nc(-c3ccc(C(=O)Nc4cc(C(F)(F)F)ccn4)cc3F)c12 [Example 45, 4-{8-amino-3-[(3R,9aR)-6-oxooctahydro-2H-quinolizin-3-yl]imidazo[1,5-a]pyrazin-1-yl}-3-fluoro-N-[4-(trifluoromethyl)pyridin-2-yl]benzamide]	1.7 nM	227 nM
CC(O)c1ccnc(NC(=O)c2ccc(-c3nc([C@@H]4CC[C@H]5CCC(=O)N5C4)n4ccnc(N)c34)cc2)c1 (stereo partly drawn) [Example 97, 4-{8-amino-3-[(6R,8aS)-3-oxooctahydroindolizin-6-yl]imidazo[1,5-a]pyrazin-1-yl}-N-[4-(1-hydroxyethyl)pyridin-2-yl]benzamide]	9.7 nM	5380 nM
CC(C)N1CC(=O)N2C[C@H](c3nc(-c4ccc(C(=O)Nc5cc(C(F)(F)F)ccn5)cc4)c4c(N)nccn34)CC[C@H]2C1 [Example 81]	0.29 nM	68.6 nM
Nc1nccn2c([C@H]3CC[C@@H]4CCC(=O)N4C3)nc(-c3ccc(C(=O)Nc4ccccn4)cc3)c12 [Example 9, 4-(8-amino-3-((6S,8aR)-3-oxooctahydroindolizin-6-yl)imidazo[1,5-a]pyrazin-1-yl)-N-(pyridin-2-yl)benzamide]	194 nM	287 nM
CCOc1cc(C(=O)Nc2cc(C(F)(F)F)ccn2)ccc1-c1nc([C@@H]2CC[C@H]3CCC(=O)N3C2)n2ccnc(N)c12 [Example 69, 4-{8-amino-3-[(6R,8aS)-3-oxooctahydroindolizin-6-yl]imidazo[1,5-a]pyrazin-1-yl}-3-ethoxy-N-[4-(trifluoromethyl)pyridin-2-yl]benzamide]	0.16 nM	1440 nM
Nc1nccn2c([C@@H]3CC[C@H]4CCC(=O)N4C3)nc(-c3ccc(C(=O)Nc4cc(C(F)(F)F)ccn4)cc3C(=O)O)c12 [Example 127, 2-{8-amino-3-[(6R,8aS)-3-oxooctahydroindolizin-6-yl]imidazo[1,5-a]pyrazin-1-yl}-5-{[4-(trifluoromethyl)pyridin-2-yl]carbamoyl}benzoic acid]	83.5 nM	5160 nM
Nc1nccn2c([C@H]3CN4C(=O)CC[C@@H]4CO3)nc(-c3ccc(C(=O)Nc4cc(C(F)(F)F)ccn4)cc3)c12 [Example 107, 4-{8-amino-3-[(3R,8aR)-6-oxohexahydro-1H-pyrrolo[2,1-c][1,4]oxazin-3-yl]imidazo[1,5-a]pyrazin-1-yl}-N-[4-(trifluoromethyl)pyridin-2-yl]benzamide]	0.26 nM	206 nM
Nc1nccn2c([C@@H]3CC[C@H]4CCC(=O)N4C3)nc(-c3ccc(C(=O)Nc4cc(C5CC5)ccn4)cc3F)c12 [Example 16, 4-{8-amino-3-[(6R,8aS)-3-oxooctahydroindolizin-6-yl]imidazo[1,5-a]pyrazin-1-yl}-N-(4-cyclopropylpyridin-2-yl)-3-fluorobenzamide]	0.2 nM	75.1 nM
Nc1nccn2c([C@H]3CC[C@H]4C[C@@H](O)C(=O)N4C3)nc(-c3ccc(C(=O)Nc4cc(C(F)(F)F)ccn4)cc3)c12 [Example 73, 4-{8-amino-3-[(2R,6S,8aS)-2-hydroxy-3-oxooctahydroindolizin-6-yl]imidazo[1,5-a]pyrazin-1-yl}-N-[4-(trifluoromethyl)pyridin-2-yl]benzamide]	0.93 nM	973 nM
C=C[C@@H]1OC(=O)N2C[C@H](c3nc(-c4ccc(C(=O)Nc5cc(C(F)(F)F)ccn5)cc4)c4c(N)nccn34)CC[C@@H]12 [Example 109, 4-{8-amino-3-[(1S,6R,8aS)-1-ethenyl-3-oxohexahydro[1,3]oxazolo[3,4-a]pyridin-6-yl]imidazo[1,5-a]pyrazin-1-yl}-N-[4-(trifluoromethyl)pyridin-2-yl]benzamide]	6.3 nM	116 nM

Next, values leading:

IC50 [1]	IC50 [2]	Compound
144 nM	3320 nM	Nc1nccn2c([C@@H]3CC[C@H]4CCC(=O)N4C3)nc(-c3ccc(C(=O)Nc4nc(C(F)(F)F)c[nH]4)cc3)c12 [Example 177, 4-{8-amino-3-[(6R,8aS)-3-oxooctahydroindolizin-6-yl]imidazo[1,5-a]pyrazin-1-yl}-N-[4-(trifluoromethyl)-1H-imidazol-2-yl]benzamide]
0.34 nM	296 nM	Nc1ncc(F)n2c([C@@H]3CC[C@H]4CCC(=O)N4C3)nc(-c3ccc(C(=O)Nc4cc(C(F)(F)F)ccn4)cc3F)c12 [Example 166, 4-{8-amino-5-fluoro-3-[(6R,8aS)-3-oxooctahydroindolizin-6-yl]imidazo[1,5-a]pyrazin-1-yl}-3-fluoro-N-[4-(trifluoromethyl)pyridin-2-yl]benzamide]
1.5 nM	741 nM	Cc1cnc(NC(=O)c2ccc(-c3nc([C@@H]4CC[C@H]5CCC(=O)N5C4)n4c(Cl)cnc(N)c34)c(Cl)c2)s1 [Example 196, 4-(8-amino-5-chloro-3-((6R,8aS)-3-oxooctahydroindolizin-6-yl)imidazo[1,5-a]pyrazin-1-yl)-3-chloro-N-(5-methylthiazol-2-yl)benzamide]
3.2 nM	5890 nM	CCOCCOc1cc(C(=O)Nc2cc(C(F)(F)F)ccn2)ccc1-c1nc([C@@H]2CC[C@H]3CCC(=O)N3C2)n2ccnc(N)c12 [Example 201, 4-{8-amino-3-[(6R,8aS)-3-oxooctahydroindolizin-6-yl]imidazo[1,5-a]pyrazin-1-yl}-3-(2-ethoxyethoxy)-N-[4-(trifluoromethyl)pyridin-2-yl]benzamide]
2.5 nM	728 nM	COc1cc(C(=O)Nc2cc(C(F)(F)F)ccn2)c(F)cc1-c1nc([C@@H]2CC[C@H]3CCC(=O)N3C2)n2ccnc(N)c12 [Example 130, 4-{8-amino-3-[(6R,8aS)-3-oxooctahydroindolizin-6-yl]imidazo[1,5-a]pyrazin-1-yl}-2-fluoro-5-methoxy-N-[4-(trifluoromethyl)pyridin-2-yl]benzamide]
0.74 nM	2780 nM	CCOc1cc(C(=O)Nc2cc(C(F)(F)F)n(C)n2)ccc1-c1nc([C@@H]2CC[C@H]3CCC(=O)N3C2)n2ccnc(N)c12 [Example 131, 4-{8-amino-3-[(6R,8aS)-3-oxooctahydroindolizin-6-yl]imidazo[1,5-a]pyrazin-1-yl}-3-ethoxy-N-[1-methyl-5-(trifluoromethyl)-1H-pyrazol-3-yl]benzamide]
5.2 nM	6880 nM	COc1cc(C(=O)Nc2ncc(C)s2)ccc1-c1nc([C@@H]2CC[C@H]3CCC(=O)N3C2)n2ccnc(N)c12 [Example 202, 4-{8-amino-3-[(6R,8aS)-3-oxooctahydroindolizin-6-yl]imidazo[1,5-a]pyrazin-1-yl}-3-methoxy-N-(5-methyl-1,3-thiazol-2-yl)benzamide]
135 nM	1380 nM	Nc1nccn2c([C@@H]3CC[C@H]4CCC(=O)N4C3)nc(-c3ccc(C(=O)Nc4cc(C(F)(F)F)ccn4)cc3OC3CCCCC3)c12 [Example 138, 4-{8-amino-3-[(6R,8aS)-3-oxooctahydroindolizin-6-yl]imidazo[1,5-a]pyrazin-1-yl}-3-(cyclohexyloxy)-N-[4-(trifluoromethyl)pyridin-2-yl]benzamide]
0.41 nM	582 nM	COc1cc(C(=O)Nc2cc(C3CCC3)ccn2)ccc1-c1nc([C@@H]2CC[C@H]3CCC(=O)N3C2)n2c(Cl)cnc(N)c12 [Example 209, 4-{8-amino-5-chloro-3-[(6R,8aS)-3-oxooctahydroindolizin-6-yl]imidazo[1,5-a]pyrazin-1-yl}-N-(4-cyclobutylpyridin-2-yl)-3-methoxybenzamide]
8.2 nM	252 nM	Cc1cc(C(=O)Nc2cc(C(F)(F)F)ccn2)c(F)cc1-c1nc([C@@H]2CC[C@H]3CCC(=O)N3C2)n2ccnc(N)c12 [Example 198, 4-(8-amino-3-((6R,8aS)-3-oxooctahydroindolizin-6-yl)imidazo[1,5-a]pyrazin-1-yl)-2-fluoro-5-methyl-N-(4-(trifluoromethyl)pyridin-2-yl)benzamide]
0.78 nM	1430 nM	CCOc1cc(C(=O)Nc2cc(C3CC3)ccn2)c(F)cc1-c1nc([C@@H]2CC[C@H]3CCC(=O)N3C2)n2c(Cl)cnc(N)c12 [Example 136, 4-{8-amino-5-chloro-3-[(6R,8aS)-3-oxooctahydroindolizin-6-yl]imidazo[1,5-a]pyrazin-1-yl}-N-(4-cyclopropylpyridin-2-yl)-5-ethoxy-2-fluorobenzamide]
3.9 nM	1530 nM	CC(=O)Oc1cc(C(=O)Nc2cc(C(F)(F)F)ccn2)ccc1-c1nc([C@@H]2CC[C@H]3CCC(=O)N3C2)n2ccnc(N)c12 [Example 155, 2-{8-amino-3-[(6R,8aS)-3-oxooctahydroindolizin-6-yl]imidazo[1,5-a]pyrazin-1-yl}-5-{[4-(trifluoromethyl)pyridin-2-yl]carbamoyl}phenyl acetate]
